Measurements published in patent US20140107100A1, “Benzoxazepines as Inhibitors of PI3K/mTOR and Methods of Their Use and Manufacture” (EXELIXIS, INC., priority 2010, published 2014).

Biological target: mTOR/GbL/Raptor (mTORC1) (Homo sapiens, UniProt P42345)
Experiment: mTOR/GbL/Raptor (mTORC1) ELISA assay, phosphorylation of 4E-BP1
Type: biochemical
Settings: 0.2 nM mTORC1, 40 uM ATP, 50 nM NHis-tagged 4E-BP1, 120 minutes; read-out: IC50 in this assay (mTORC1 ELISA)
Procedure: The measurement of mTORC1 enzyme activity was performed in an ELISA assay format following the phosphorylation of 4E-BP1 protein. All experiments were performed in the 384-well format. Generally, 0.5 μL DMSO containing varying concentrations of the test Compound was mixed with 15 μL enzyme solution. Kinase reactions were initiated with the addition of 15 μL of substrates-containing solution. The assay conditions were-as follows; 0.2 nM mTORC1, 40 uM ATPand 50 nM NHis-tagged4E-BP1 in20 mM Hepes, pH 7.2, 1 mM DTT, 50 mMNaC1, 10 mM MnC12, 0.02 mg/mL BSA, 0.01% CHAPS, 50 mM β-glycerophosphate. Following an incubation of 120 minutes at anibient temperature, 20 μL of the reaction volume was transferred to a Ni-Chelate-coated 384-well plate. The binding step of the 4E-BP1 protein proceeded for 60 minutes, followed by washing 4 times each with 50 uL of Tris-buffered saline solution (TBS). Anti-phospho-4E-BPl rabbit-IgG ([…]. 1:5000) in 5% BSA-TBST (0.2% Tween-20 in TBS) was added and further incubated for 60 minutes. Incubation with a secondary HRP-tagged anti-IgG was similarly performed after washing off the primary antibody (4 washes of 50 μL). Following the final wash step with TBST, 20 μL of SuperSignal ELISA Femto (Pierce Biotechnology) was added and the luminescence measured using an En Vision plate reader.

IC50 [nM] | Structure (SMILES)
≤ 100 | Cc1cc(-c2cnc3sc(N)nc3c2)cc2c1OCCN(c1nc(CN3CCCC3)nc(C)c1C(C)C)C2 [Compound 59, 6-{9-methyl-4-[6-methyl-5-(1-methylethyl)-2-(pyrrolidin-1-ylmethyl)pyrimidin-4-yl]-2,3,4,5-tetrahydro-1,4-benzoxazepin-7-yl}[1,3]thiazolo[5,4-b]pyridin-2-amine]
100 to 500 | Cc1cc(-c2cnc3sc(N)nc3c2)cc2c1OCCN(c1nc(CN(C)C)ncc1CC(F)(F)F)C2 [Compound 60, 6-(4-{2-[(dimethylamino)methyl]-5-(2,2,2-trifluoroethyl)pyrimidin-4-yl}-9-methyl-2,3,4,5-tetrahydro-1,4-benzoxazepin-7-yl)[1,3]thiazolo[5,4-b]pyridin-2-amine]
≤ 100 | CCc1c(Cl)nc(CN(C)C)nc1N1CCOc2c(C)cc(-c3cnc4sc(N)nc4c3)cc2C1 [Compound 61, 6-(4-{6-chloro-2-[(dimethylamino)methyl]-5-ethylpyrimidin-4-yl}-9-methyl-2,3,4,5-tetrahydro-1,4-benzoxazepin-7-yl)[1,3]thiazolo[5,4-b]pyridin-2-amine]
≤ 100 | Cc1cc(-c2cnc3sc(N)nc3c2)cc2c1OCCN(c1nc(N)nc(Cl)c1C(C)C)C2 [Compound 62, 6-{4-[2-amino-6-chloro-5-(1-methylethyl)pyrimidin-4-yl]-9-methyl-2,3,4,5-tetrahydro-1,4-benzoxazepin-7-yl}[1,3]thiazolo[5,4-b]pyridin-2-amine]
≤ 100 | Cc1cc(-c2cnc3sc(N)nc3c2)cc2c1OCCN(c1nc(CN(C)C)nc(Cl)c1C(C)C)C2 [Compound 63, 6-(4-{6-chloro-2-[(dimethylamino)methyl]-5-(1-methylethyl)pyrimidin-4-yl}-9-methyl-2,3,4,5-tetrahydro-1,4-benzoxazepin-7-yl)[1,3]thiazolo[5,4-b]pyridin-2-amine]
≤ 100 | Cc1cc(-c2cnc3sc(N)nc3c2)cc2c1OCCN(c1nc(CO)nc(C)c1C(C)C)C2 [Compound 64, {4-[7-(2-amino[1,3]thiazolo[5,4-b]pyridin-6-yl)-9-methyl-2,3-dihydro-1,4-benzoxazepin-4(5H)-yl]-6-methyl-5-(1-methylethyl)pyrimidin-2-yl}methanol]
≤ 100 | CCN(CC)Cc1nc(C)c(C(C)C)c(N2CCOc3c(C)cc(-c4cnc5sc(N)nc5c4)cc3C2)n1 [Compound 65, 6-(4-{2-[(diethylamino)methyl]-6-methyl-5-(1-methylethyl)pyrimidin-4-yl}-9-methyl-2,3,4,5-tetrahydro-1,4-benzoxazepin-7-yl)[1,3]thiazolo[5,4-b]pyridin-2-amine]
≤ 100 | CCc1cnc(CN(C)C)nc1N1CCOc2c(C)cc(-c3cnc4sc(N)nc4c3)cc2C1 [Compound 66, 6-(4-{2-[(dimethylamino)methyl]-5-ethylpyrimidin-4-yl}-9-methyl-2,3,4,5-tetrahydro-1,4-benzoxazepin-7-yl)[1,3]thiazolo[5,4-b]pyridin-2-amine]
≤ 100 | CCc1c(C)nc(CN(C)C)nc1N1CCOc2c(C)cc(-c3cnc4sc(N)nc4c3)cc2C1 [Compound 67, 6-(4-{2-[(dimethylamino)methyl]-5-ethyl-6-methylpyrimidin-4-yl}-9-methyl-2,3,4,5-tetrahydro-1,4-benzoxazepin-7-yl)[1,3]thiazolo[5,4-b]pyridin-2-amine]
100 to 500 | Cc1cc(-c2cccc(O)c2)cc2c1OCCN(c1nc(N)nc(C)c1C(C)C)C2 [Compound 70, 3-{4-[2-amino-6-methyl-5-(1-methylethyl)pyrimidin-4-yl]-9-methyl-2,3,4,5-tetrahydro-1,4-benzoxazepin-7-yl}phenol]
100 to 500 | Cc1cc(-c2cncnc2)cc2c1OCCN(c1nc(N)nc(C)c1C(C)C)C2 [Compound 71, 4-methyl-5-(1-methylethyl)-6-(9-methyl-7-pyrimidin-5-yl-2,3-dihydro-1,4-benzoxazepin-4(5H)-yl)pyrimidin-2-amine]
